Test results as given in patent US20240246903A1, “INDANONE AND TETRALONEKETO OR HYDROXYL OXIMES AS CANCEL THERAPEUTICS” (Board of Regents, The University of Texas System, priority 2021, published 2024).

Tested on: GBM cells
Assay: GBM cell viability (MTT assay)
Format: cell-based
Conditions: FIG. 3, read-out: concentration that reduces cell viability by 50%
Description: To assess, the antitumor activity of the new ERβ agonist compounds, GBM cells were assessed for viability using a commercially available MTT assay. Briefly, the assay determines the number of viable cells in culture by […], which indicates the presence of metabolically active cells. Previously described agonists such as LY was able to reduce viability by 50% with concentration of 10 μM or greater. The new compounds described in this disclosure have higher potency than existing compounds and some reduce cell viability by 50% at concentrations even at 3 μM (FIG. 3).

In the case of `Oc1ccc([C@@H]2Oc3ccc(O)cc3[C@@H]3CCC[C@@H]32)cc1` [LY, (3aS,4R,9bR)-4-(4-hydroxyphenyl)-1,2,3,3a,4,9b-hexahydrocyclopenta[c]chromen-8-ol], the IC50 is reported as ≥ 10 µM.
